Measurements taken from patent publication US10160986B2, “Chemoenzymatic synthesis of heparin and heparan sulfate analogs” (The Regents of the University of California, priority 2011, dated 2018).

Assays:
[1] = test system: T1, MBP-KfiA-His6 (Escherichia coli); test: GlcNAcT donor substrate specificity of MBP-KfiA-His6 (Example 12); type: biochemical, E. coli; conditions: acceptor GlcAβ2AA 1 mM, UDP-sugar 1 mM, MnCl2 10 mM, KfiA 2.8 μg μl^−1, 24 h, 37° C.
T1 construct: made in house; host or cells: E. coli BL21(DE3) co-expressing chaperone plasmid pGro7
Description: (§1) PmHS2, KfiA, and related fusion proteins were expressed, purified, and characterized as described in Example 1. Reactions with UDP-sugars were carried out in duplicate at 37° C. in MES (100 mM, pH 6.5) containing UDP-GlcNAc or one of its derivatives (1 mM), GlcAβ2AA (1 mM), MnCl2 (10 mM) and KfiA (2.8 μg μl^−1) or PmHS2 (1.1 μg μl^−1) for 24 h. The reaction mixtures were stopped by adding ice-cold 10% (v/v) acetonitrile to make 100-fold dilutions and the mixtures were analyzed by HPLC as described for the pH profile.
(§2) Substrate specificity of the GlcNAcT activities of MBP-KfiA-his6 and his6-PmHS2. […] The reactions were easily analyzed by high performance liquid chromatography (HPLC) equipped with a fluorescence detector using an excitation wavelength of 315 nm and an emission wavelength of 400 nm to determine the ratio of the fluorescent disaccharide product formed and the fluorescent GlcAβ2AA acceptor.

[2] = test system: His6-PmHS2; test: GlcNAcT donor substrate specificity of His6-PmHS2 (Example 12); type: biochemical, Pasteurella multocida; conditions: acceptor GlcAβ2AA 1 mM, UDP-sugar 1 mM, MnCl2 10 mM, PmHS2 1.1 μg μl^−1, 24 h, 37° C.
Description: as §1, §2

[3] = test system: PmHS2; test: Small-scale PmHS2 donor substrate test by TLC; type: biochemical, Pasteurella multocida; conditions: GlcAβ2AAMe 10 mM, donor 15 mM, MgCl2 10 mM, PmHS2 0.5 mg/mL, pH 7.5, 37° C., 12 hr
Description: Prior to applying the one-pot three-enzyme system shown in FIG. 16 to the preparative-scale synthesis of the disaccharides, UDP-GlcNAc and derivatives F17-1-F17-12 were tested as donor substrates for PmHS2 in small-scale reaction containing Tris-HCl buffer (100 mM, pH 7.5), GlcAβ2AAMe (10 mM), UDP-GlcNAc or a derivative (15 mM), MgCl2 (10 mM), and PmHS2 (0.5 mg/mL). The reactions were carried out at 37° C. for 12 hr and analyzed by thin layer chromatography (TLC).

[4] = test system: NahK; test: Kinase reaction monitored by CE (ATP to ADP), NahK; type: biochemical, Bifidobacterium infantis; conditions: monosaccharide 15 mM, ATP 18 mM, 37° C., listed as T6-11 Man
Description: Capillary electrophoresis (CE) and thin-layer chromatograph (TLC) assays for kinase reactions. Kinase reactions were carried out at 37° C. in a total volume of 30 μL in Tris-HCl buffer (100 mM, pH 8.0) containing monosaccharide (15 mM), ATP (18 mM, 1.2 eq.), MgCl2 (10 mM), and a kinase (6 μg). These conditions were similar to those used for preparative-scale synthesis. After 1 hr, 4 hr, and 24 hr, an aliquot of 8 μL was withdrawn from each reaction mixture, boiled in a water bath for 5 min and stored at −20° C. until being analyzed by capillary electrophoresis (CE) and TLC. For TLC analysis, 0.5 μL of each sample was directly spotted on TLC plates, developed using suitable developing solvents, and stained with anisaldehyde sugar stain. For CE analysis, 1.5 μL of each sample was diluted into 30 μL and subjected to CE analysis as described above for pH profile studies.
General methods for compound purification and characterization. Chemicals were purchased and used without further purification. ^1H NMR and ^13C NMR spectra were recorded on a Varian Mercury 600 NMR spectrometer. High resolution electrospray ionization (ESI) mass spectra were obtained in negative mode using Thermo Electron LTQ-Orbitrap mass spectrometer. Silica gel 60 Å (Sorbent Technologies) was used for flash column chromatography. Thin-layer chromatography (TLC) was performed on silica gel plates 60 GF254 (Sorbent Technologies) using anisaldehyde sugar stain for detection. Gel filtration chromatography was performed with a column (100 cm×2.5 cm) packed with BioGel P-2 Fine resins (Bio-Rad). GlcN3 (T6-9) (Lau K, Thon, V, Yu H, Ding L, Chen Y, Muthana M M, Wong D, Huang R, and Chen X. Chem. Commun. 2010, 46, 6066-6068), ManF (T6-11) (Burkart M D, Zhang Z, Hung S-C, and Wong C-H. J. Am. Chem. Soc. 1997, 119, 11743-11746; Cao H, Li Y, Lau K, Muthana S, Yu H, Cheng J, Chokhawala H A, Sugiarto G, Zhang L, and Chen X. Org. Biomol. Chem. 2009, 7, 5137-5145), GalN3 (T6-4) and ManN3 (T6-14) (Yu H, Yu H, Karpel R, cand Chen X. Bioorg. Med. Chem. 2004, 12, 6427-6435) were previously synthesized using reported methods. NahK_ATCC15697, EcGalK, SpGalK, and PmPpA were overexpressed as described previously.

[5] = target: NahK_ATCC55813 (Bifidobacterium longum subsp. longum, UniProt E8MF12, D7V/R348H); type: biochemical; design: made in house; host or cells: E. coli BL21(DE3); conditions: Glc, Gal, Man, ManNAc and derivatives; enzyme 15, 37° C. for 30 min (Table 3); listed as drawing 49
Description: (§3) Substrates specificity assays. GlcNAc, GalNAc, and their derivatives (1 mM) were used as substrates in the presence of ATP (1 mM) and MgCl2 (5 mM) in a Tris-HCl buffer (pH 8.0, 200 mM) to analyze the substrate specificity of NahKs. Two concentrations (0.75 μM or 15 μM) of each NahK were used and the reactions were allowed to proceed for 10 min (for 0.75 μM NahK) or 30 min (for 15 μM NahK) at 37° C. […] All other conditions were the same as for GlcNAc, GalNAc, and their derivatives.
(§4) Capillary electrophoresis (CE) assays. Based on the detection of ADP and ATP in the reaction mixture by a UV detector, a capillary electrophoresis-based method was developed to directly measure the formation of ADP and N-acetylhexosamine-1-phosphate from ATP and N-acetylhexosamine for characterizing the activities of NahKs.

[6] = target: NahK_ATCC15697 (Bifidobacterium longum, UniProt B7GN78); test: Substrate specificity CE assay, NahK_ATCC15697; type: biochemical, Bifidobacterium infantis; conditions: Glc, Gal, Man, ManNAc and derivatives; enzyme 15, 37° C. for 30 min (Table 3); listed as drawing 49
Description: as §3, §4

Compound	donor substrate for MBP-KfiA-His6 [1]	donor substrate for the α1-4GlcNAcT activity of His6-PmHS2 [2]	also measured
O=c1ccn(C2OC(COP(=O)(O)OP(=O)(O)OC3OC(CO)C(O)C(O)C3F)C(O)C2O)c(=O)[nH]1 [Compound 33-23, Uridine 5′-diphospho-2-fluoro-2-deoxy-α-D-mannopyranoside]	not tolerable substrate	not tolerable substrate	
[N-]=[N+]=N[C@@H]1[C@@H](OP(=O)(O)OP(=O)(O)OC[C@H]2O[C@@H](n3ccc(=O)[nH]c3=O)[C@H](O)[C@@H]2O)O[C@H](CO)[C@@H](O)[C@@H]1O [Compound 33-21, Uridine 5′-diphospho-2-azido-2-deoxy-α-D-mannopyranoside]	not tolerable substrate	not tolerable substrate	
CC(=O)NC1C(OP(=O)(O)OP(=O)(O)OCC2OC(n3ccc(=O)[nH]c3=O)C(O)C2O)OC(CNC(=O)Cc2ccccc2)C(O)C1O [Compound 33-14, Uridine 5′-diphospho-2-acetamido-6-phenylacetamido-2,6-dideoxy-α-D-glucopyranoside]	not suitable donor substrates	not suitable donor substrates	
O=C(Cc1ccccc1)NC1C(OP(=O)(O)OP(=O)(O)OCC2OC(n3ccc(=O)[nH]c3=O)C(O)C2O)OC(CO)C(O)C1O [Compound 33-5, Uridine 5′-diphospho-2-phenylacetamido-2-deoxy-α-D-glucopyranoside]	not for MBPKfiA-His6	tolerable donor substrates for His6-PmHS2	
CC(=O)NC1C(OP(=O)(O)OP(=O)(O)OCC2OC(n3ccc(=O)[nH]c3=O)C(O)C2O)OC(CN)C(O)C1O [Compound F17-10, Uridine 5′-diphospho-2-acetamido-6-amino-2,6-dideoxy-α-D-glucopyranoside]	not for MBPKfiA-His6	tolerable donor substrates for His6-PmHS2	donor substrate for PmHS2 [3]: did not serve as donor substrates
CC(=O)N[C@H]1[C@@H](OP(=O)(O)OP(=O)(O)OC[C@H]2O[C@@H](n3ccc(=O)[nH]c3=O)[C@H](O)[C@@H]2O)O[C@H](COS(=O)(=O)O)[C@@H](O)[C@@H]1O [Compound F17-12, Uridine 5′-diphospho-2-acetamido-2-deoxy-6-O-sulfo-α-D-glucopyranoside]		block the activities of both	donor substrate for PmHS2 [3]: did not serve as donor substrates
CC(=O)N[C@H]1[C@@H](OP(=O)(O)OP(=O)(O)OC[C@H]2O[C@@H](n3ccc(=O)[nH]c3=O)[C@H](O)[C@@H]2O)O[C@H](CO)[C@H](O)[C@@H]1O [Compound 33-18, uridine 5′-diphospho-2-acetamido-2-deoxy-α-D-glacopyranoside]	not for MBPKfiA-His6	tolerable donor substrates for His6-PmHS2	
O=C(Cc1ccc(-c2ccccc2)cc1)N[C@H]1[C@@H](OP(=O)(O)OP(=O)(O)OC[C@H]2O[C@@H](n3ccc(=O)[nH]c3=O)[C@H](O)[C@@H]2O)O[C@H](CO)[C@@H](O)[C@@H]1O [Compound 33-6, Uridine 5′-diphospho-2-(1,1′-biphenyl-4-yl)acetamido-2-deoxy-α-D-glucopyranoside]	not suitable donor substrates	not suitable donor substrates	
CC(=O)N[C@@H]1[C@@H](OP(=O)(O)OP(=O)(O)OC[C@H]2O[C@@H](n3ccc(=O)[nH]c3=O)[C@H](O)[C@@H]2O)O[C@H](CO)[C@@H](O)[C@@H]1O [Compound 33-20, Uridine 5′-diphospho-2-acetamido-2-deoxy-α-D-mannopyranoside]	not tolerable substrate	not tolerable substrate	
O=c1ccn([C@@H]2O[C@H](COP(=O)(O)OP(=O)(O)O[C@H]3O[C@H](CO)[C@@H](O)[C@H](O)[C@H]3NS(=O)(=O)O)[C@@H](O)[C@H]2O)c(=O)[nH]1 [Compound F17-7, Uridine 5′-diphospho-2-sulfoamino-2-deoxy-α-D-glucopyranoside]		block the activities of both	donor substrate for PmHS2 [3]: did not serve as donor substrates
CC(=O)NC1C(OP(=O)(O)OP(=O)(O)OCC2OC(n3ccc(=O)[nH]c3=O)C(O)C2O)OC(CNC(=O)Cc2ccc(-c3ccccc3)cc2)C(O)C1O [Compound 33-15, Uridine 5′-diphospho-2-acetamido-6-(1,1′-biphenyl-4-yl)-acetamido-2,6-dideoxy-α-D-glucopyranoside]	not suitable donor substrates	not suitable donor substrates	
OCC1OC(O)C(O)[C@@H](O)[C@@H]1O (stereo partly shown) [Man, mannose]			ATP Conversion ([4]; 1 hr): 29.6%; ATP Conversion ([4]; 4 hr): 69.3%; ATP Conversion ([4]; 24 hr): 75.1%; Percentage Conversion [5]: 37.1 ± 0.4%; Percentage Conversion [6]: 68.0 ± 1.7%
